Read-outs that look alike come from different tables or passages of the source.
How the values were obtained:
Format in all cases: cell-based
[1] = system: L. amazonensis-infected murine macrophages; assay: Treatment of infected macrophages; conditions: 48 h
Protocol: (§1) To evaluate the efficacy of malvidin or echioidinin for treating infected macrophages, murine cells (5 × 10^5) were plated on round glass coverslips in 24-well plates in RPMI 1640 medium supplemented with 20% (v/v) FBS and 20 mM L-glutamine at a pH of 7.4 and incubated for 24 h at 37 °C in 5% CO2. Stationary promastigotes were added to the wells at a ratio of 10 parasites per macrophage, and cultures were incubated further for 48 h at 37 °C for 5% CO2. Free parasites were removed by extensive washing with RPMI 1640 medium, and infected macrophages were treated with malvidin (30.18, 60.37, and 120.74 µM), echioidinin (35.18, 70.36, and 140.72 µM), or AmpB (2.70 and 5.41 µM) for 48 h at […] in 5% CO2. After fixation with 4% paraformaldehyde, cells were washed and stained with Giemsa, and the infection percentage, the number of amastigotes per infected macrophage, and the reduction in the infection percentage were determined by counting 200 cells in triplicate, using an optical microscope.

[2] = system: L. braziliensis-infected murine macrophages; assay: Treatment of infected macrophages; conditions: 48 h
Protocol: as §1

[3] = system: L. infantum-infected murine macrophages; assay: Treatment of infected macrophages; conditions: 48 h
Protocol: as §1

O+ human red blood cells = assay: Hemolytic activity; conditions: 1 h
Protocol: (§2) Cytotoxicity was evaluated ex vivo in murine macrophages and human red blood cells, for which concentrations inhibiting 50% of macrophages (CC50) and red blood cells (RBC50) were determined. Briefly, murine cells (5 × 10^5) or a 5% human red blood cells suspension were incubated in the presence of malvidin (0 to 301.84 µM) or echioidinin (0 to 356.76 µM) AmpB (0 to 10.82 µM) was used as control. Cells were incubated in RPMI 1640 medium for 48 h (murine macrophages) or 1 h (red blood cells) at 37 °C in 5% CO2. Macrophage viability was assessed using the MTT method. The red blood cell suspension was centrifuged at 1000× g for 10 min at 4 °C, after which the percentage of cell lysis was evaluated spectrophotometrically at 570 nm. The hemolysis was determined by replacing the natural products with an equal volume of phosphate-buffered saline with a pH of 7.4 (PBS—negative control) or distilled water (positive control). CC50 and RBC50 values were calculated by sigmoidal regression of dose–response curves in Microsoft Excel software (version 10.0). SI was calculated as the ratio between CC50 and IC50 values.

[4] = system: L. amazonensis stationary promastigotes; assay: In vitro antileishmanial activity, stationary promastigotes (MTT); conditions: for IC50: 48 h, stationary promastigotes, mean ± SD, read-out: IC50 (µM) Stationary Promastigotes L. amazonensis; for Selectivity Index (SI) Stationary Promastigotes L. amazonensis: ratio between CC50 (macrophages) and IC50
Protocol: (§3) L. amazonensis (IFLA/BR/1967/PH-8), L. braziliensis (MHOM/BR/1975/M2903), and L. infantum (MHOM/BR/1970/BH46) were used as parasites. Stationary promastigotes were grown at a 24 °C in complete Schneider’s medium (Sigma-Aldrich, St. Louis, MO, USA), which was composed of medium plus 20% (v/v) heat-inactivated fetal bovine serum (FBS; Sigma-Aldrich, USA) and 20 mM L-glutamine with a pH of 7.4 [139]. To obtain the axenic amastigotes, 10^9 stationary promastigotes were washed three times in sterile phosphate-buffered saline (PBS 1X and incubated in 5 mL FBS for 48 h (L. amazonensis and L. braziliensis) and 72 h (L. infantum), respectively, at 37 °C. Parasites were washed in cold PBS 1x, and their morphology was evaluated after staining using the Giemsa method in an optical microscope, as previously described.
(§4) AmpB (0 to 10.8 µM; Sigma-Aldrich, USA) was used as control. Cell viability was assessed through 3-(4.5-dimethylthiazol-2-yl)-2.5-diphenyl tetrazolium bromide (Sigma-Aldrich, USA) method. Optical density (OD) values were measured in a microplate spectrophotometer (Molecular Devices, Spectra Max Plus, San Jose, CA, USA) at 570 nm. IC50 values were calculated by sigmoidal regression of dose–response curves in Microsoft Excel software (version 10.0). Two-tailed Student’s t-tests (p < 0.05) were used to compare IC50 values between malvidin and echioidinin, assessing significant differences in inhibitory activity.

[5] = system: L. braziliensis stationary promastigotes; assay: as above; conditions: for IC50: Leishmania braziliensis, stationary promastigotes, 48 h, mean ± SD, read-out: IC50 (µM) Stationary Promastigotes L. braziliensis; for Selectivity Index (SI) Stationary Promastigotes L. braziliensis: ratio between CC50 (macrophages) and IC50
Protocol: as §3, §4

[6] = system: L. infantum stationary promastigotes; assay: as above; conditions: for IC50: Leishmania infantum, stationary promastigotes, 48 h, mean ± SD, read-out: IC50 (µM) Stationary Promastigotes L. infantum; for Selectivity Index (SI) Stationary Promastigotes L. infantum: ratio between CC50 (macrophages) and IC50
Protocol: as §3, §4

[7] = system: L. braziliensis axenic amastigotes; assay: In vitro antileishmanial activity, axenic amastigotes (MTT); conditions: for IC50: Leishmania braziliensis, axenic amastigotes, 48 h, mean ± SD, read-out: IC50 (µM) Axenic amastigotes L. braziliensis; for Selectivity Index (SI) Axenic amastigotes L. braziliensis: ratio between CC50 (macrophages) and IC50
Protocol: as §3, §4

[8] = system: L. amazonensis axenic amastigotes; assay: as above; conditions: for IC50: 48 h, axenic amastigotes, mean ± SD, read-out: IC50 (µM) Axenic amastigotes L. amazonensis; for Selectivity Index (SI) Axenic amastigotes L. amazonensis: ratio between CC50 (macrophages) and IC50
Protocol: as §3, §4

[9] = system: L. infantum axenic amastigotes; assay: as above; conditions: for IC50: Leishmania infantum, axenic amastigotes, 48 h, mean ± SD, read-out: IC50 (µM) Axenic amastigotes L. infantum; for Selectivity Index (SI) Axenic amastigotes L. infantum: ratio between CC50 (macrophages) and IC50
Protocol: as §3, §4

[10] = Cytotoxicity assay in macrophages (MTT); conditions: mouse, murine macrophages, mean ± SD
Protocol: as §2, with “Briefly, murine cells (5 × 10^5) or a 5% human red blood cells suspension were incubated in the presence of malvidin (0 to 301.84 µM) or echioidinin (0 to 356.76 µM) AmpB (0 to 10.82 µM) was used as control.” left out

C[C@@H]1[C@H](O)[C@@H](C)/C=C/C=C/C=C/C=C/C=C/C=C/C=C/[C@H](O[C@@H]2O[C@H](C)[C@@H](O)[C@H](N)[C@@H]2O)C[C@@H]2O[C@](O)(C[C@@H](O)C[C@@H](O)[C@H](O)CC[C@@H](O)C[C@@H](O)CC(=O)O[C@H]1C)C[C@H](O)[C@H]2C(=O)O [AmpB, amphotericin B, reference compound]
Infection After Treatment (%) ([1]; 2.71 µM): 34.30% | Infectiveness Reduction (%) ([1]; 2.71 µM): 62.84% | Number of Amastigotes per Macrophage ([1]; 2.71 µM): 2.60 | Infection After Treatment (%) ([1]; 5.41 µM): 24.20% | Infectiveness Reduction (%) ([1]; 5.41 µM): 73.78% | Number of Amastigotes per Macrophage ([1]; 5.41 µM): 2.80 | Infection After Treatment (%) ([2]; 2.71 µM): 24.40% | Infectiveness Reduction (%) ([2]; 2.71 µM): 64.48% | Number of Amastigotes per Macrophage ([2]; 2.71 µM): 2.60 | Infection After Treatment (%) ([2]; 5.41 µM): 16.50% | Infectiveness Reduction (%) ([2]; 5.41 µM): 75.98% | Number of Amastigotes per Macrophage ([2]; 5.41 µM): 2.40 | Infection After Treatment (%) ([3]; 2.71 µM): 28.70% | Infectiveness Reduction (%) ([3]; 2.71 µM): 61.48% | Number of Amastigotes per Macrophage ([3]; 2.71 µM): 3.00 | Infection After Treatment (%) ([3]; 5.41 µM): 19.80% | Infectiveness Reduction (%) ([3]; 5.41 µM): 73.42% | Number of Amastigotes per Macrophage ([3]; 5.41 µM): 2.50 | RBC50 (O+ human red blood cells; human): 14.28 ± 1 µM | IC50 ([4]; Leishmania amazonensis): 0.06 ± 0.01 µM | Selectivity Index (SI) Stationary Promastigotes L. amazonensis [4]: 12.60 | IC50 [4]: 0.08 ± 0.02 µM | IC50 [5]: 0.09 ± 0.03 µM | Selectivity Index (SI) Stationary Promastigotes L. braziliensis [5]: 11.00 | IC50 [6]: 0.06 ± 0.01 µM | Selectivity Index (SI) Stationary Promastigotes L. infantum [6]: 14.70 | IC50 [7]: 0.1 ± 0.03 µM | Selectivity Index (SI) Axenic amastigotes L. braziliensis [7]: 9.80 | IC50 ([8]; Leishmania amazonensis): 0.1 ± 0.03 µM | IC50 [8]: 0.09 ± 0.02 µM | Selectivity Index (SI) Axenic amastigotes L. amazonensis [8]: 11.00 | IC50 [9]: 0.08 ± 0.02 µM | Selectivity Index (SI) Axenic amastigotes L. infantum [9]: 12.60

COc1cc(O)c2c(=O)cc(-c3ccccc3O)oc2c1 [Echioidinin, echioidinin]
CC50 at 48 h [10]: 3010 ± 114 µM | Infection After Treatment (%) ([1]; 35.18 µM): 80.20% | Infectiveness Reduction (%) ([1]; 35.18 µM): 13.11% | Number of Amastigotes per Macrophage ([1]; 35.18 µM): 5.40 | Infection After Treatment (%) ([1]; 70.36 µM): 71.80% | Infectiveness Reduction (%) ([1]; 70.36 µM): 22.21% | Number of Amastigotes per Macrophage ([1]; 70.36 µM): 3.70 | Infection After Treatment (%) ([1]; 140.72 µM): 63.40% | Infectiveness Reduction (%) ([1]; 140.72 µM): 31.31% | Number of Amastigotes per Macrophage ([1]; 140.72 µM): 6.30 | Infection After Treatment (%) ([2]; 35.18 µM): 56.50% | Infectiveness Reduction (%) ([2]; 35.18 µM): 17.76% | Number of Amastigotes per Macrophage ([2]; 35.18 µM): 6.40 | Infection After Treatment (%) ([2]; 70.36 µM): 50.80% | Infectiveness Reduction (%) ([2]; 70.36 µM): 26.06% | Number of Amastigotes per Macrophage ([2]; 70.36 µM): 3.70 | Infection After Treatment (%) ([2]; 140.72 µM): 43.20% | Infectiveness Reduction (%) ([2]; 140.72 µM): 37.12% | Number of Amastigotes per Macrophage ([2]; 140.72 µM): 3.70 | Infection After Treatment (%) ([3]; 35.18 µM): 65.50% | Infectiveness Reduction (%) ([3]; 35.18 µM): 12.08% | Number of Amastigotes per Macrophage ([3]; 35.18 µM): 4.80 | Infection After Treatment (%) ([3]; 70.36 µM): 58.70% | Infectiveness Reduction (%) ([3]; 70.36 µM): 21.21% | Number of Amastigotes per Macrophage ([3]; 70.36 µM): 2.80 | Infection After Treatment (%) ([3]; 140.72 µM): 50.70% | Infectiveness Reduction (%) ([3]; 140.72 µM): 31.95% | Number of Amastigotes per Macrophage ([3]; 140.72 µM): 4.20 | RBC50 (O+ human red blood cells; lysis of 50% of O+ human red blood cells, mean ± SD): 3400.76 ± 78 µM | IC50 ([4]; Leishmania amazonensis): 273 ± 29 µM | Selectivity Index (SI) Stationary Promastigotes L. amazonensis [4]: 10.80 | IC50 [5]: 251 ± 22 µM | Selectivity Index (SI) Stationary Promastigotes L. braziliensis [5]: 12.10 | IC50 [6]: 213 ± 16 µM | Selectivity Index (SI) Stationary Promastigotes L. infantum [6]: 14.00 | IC50 [7]: 293 ± 20 µM | Selectivity Index (SI) Axenic amastigotes L. braziliensis [7]: 10.30 | IC50 ([8]; Leishmania amazonensis): 336 ± 19 µM | Selectivity Index (SI) Axenic amastigotes L. amazonensis [8]: 8.90 | IC50 [9]: 262 ± 17 µM | Selectivity Index (SI) Axenic amastigotes L. infantum [9]: 11.60

From article PMC11722285, “Exploring the Potential of Malvidin and Echiodinin as Probable Antileishmanial Agents Through In Silico Analysis and In Vitro Efficacy” (Molecules, 2025)
